Target: 5-hydroxytryptamine receptor 7 (Homo sapiens) (UniProt P34969)
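Note: displacement of bound [3H]-SB269970 at the 5-HT7 receptor (origin unspecified), test concentration 10 µM, 60 min incubation.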

5-hydroxytryptamine receptor 7 (Homo sapiens), sequence (P34969 whole entry): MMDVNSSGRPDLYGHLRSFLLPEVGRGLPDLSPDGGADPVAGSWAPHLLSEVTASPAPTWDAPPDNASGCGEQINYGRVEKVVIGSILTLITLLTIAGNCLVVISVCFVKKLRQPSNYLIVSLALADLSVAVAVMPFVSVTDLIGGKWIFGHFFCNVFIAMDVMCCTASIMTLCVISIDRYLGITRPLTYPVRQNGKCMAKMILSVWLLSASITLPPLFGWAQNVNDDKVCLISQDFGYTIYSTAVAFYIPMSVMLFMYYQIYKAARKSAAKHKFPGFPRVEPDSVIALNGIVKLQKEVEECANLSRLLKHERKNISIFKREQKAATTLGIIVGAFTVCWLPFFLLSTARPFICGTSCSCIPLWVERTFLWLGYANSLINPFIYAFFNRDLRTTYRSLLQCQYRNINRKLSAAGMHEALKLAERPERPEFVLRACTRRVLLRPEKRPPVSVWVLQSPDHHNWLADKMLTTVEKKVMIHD
Description: Displacement of [3H]-SB269970 from 5-HT7 receptor (unknown origin) at 10 uM after 60 mins

| SMILES | log(activity) |
| --- | --- |
| COc1ccc2c(c1)CC(=O)N2C(C(=O)Nc1c(C)cccc1C)c1ccc(Cl)cc1 (configuration not stated) | 1.25 |
| COc1ccc2c(c1)CC(=O)N2C(C(=O)NC(C)(C)C)C(C)C (configuration not stated) | 1.48 |
| COc1ccc2c(c1)CC(=O)N2C(C(=O)NC(C)(C)C)C(C)(C)C (configuration not stated) | 1.15 |
| COc1ccc2c(c1)CC(=O)N2C(C(=O)NC1CCCCC1)c1ccc(Cl)cc1 (configuration not stated) | 1.3 |
| COc1ccc2c(c1)CC(=O)N2C(C(=O)Nc1c(C)cccc1C)C(C)C (configuration not stated) | 1.38 |
| COc1ccc2c(c1)CC(=O)N2C(C(=O)NC1CCCCC1)c1ccccc1 (configuration not stated) | 1 |
| COc1ccc2c(c1)CC(=O)N2C(C(=O)NC(C)(C)C)c1ccccc1 (configuration not stated) | 1.18 |
| COc1ccc2c(c1)CC(=O)N2C(C(=O)NC1CCCCC1)C(C)C (configuration not stated) | 1.2 |
| COc1ccc2c(c1)CC(=O)N2C(C(=O)Nc1c(C)cccc1C)C(C)(C)C (configuration not stated) | 0.954 |
| COc1ccc2c(c1)CC(=O)N2C(C(=O)NC1CCCCC1)C(C)(C)C (configuration not stated) | 1.04 |
| COc1ccc2c(c1)CC(=O)N2C(C(=O)NC(C)(C)C)c1ccc(Cl)cc1 (configuration not stated) | 1.2 |
| COc1ccc2c(c1)CC(=O)N2C(C(=O)Nc1c(C)cccc1C)c1ccccc1 (configuration not stated) | 1.2 |

— ChEMBL document CHEMBL3399943, “In vitro and in silico evaluation of twelve newly-synthesized 1-acetamide-5-methoxy-2-oxindoles as 5-Ht₇ receptor ligands” (Bioorg Med Chem Lett, 2015)
